Molecular target: tau (Homo sapiens, UniProt P10636)
Assay: MCE Phenols Library screening, tau biosensor cell seeding assay (AvZ)
Type: cell-based
Settings: for Z repl 1 / Z Repl 2: Z score; for Z repl 1 / raw data 1: replicate 1; for Z Repl 2 / raw data 2: replicate 2; for AvZ (average z score of seeding, SDs from the mean level of seeding): 10 μM phenol in cell cultures, AD brain homogenate preincubated 16 hours, two biological replicates, positive = catalyzes seeding, negative = inhibits
[1] = average Z score of the two replicates, MCE Phenols Library screen
[2] = average puncta of the two replicates
[3] = average Z score of the two replicates, tau seeding
[4] = average Z score of two replicates, Phenols Library screen
[5] = average Z score of the two replicates, tau biosensor seeding, MCE Phenols Library screen

Chain of tau (P10636 623-695 limits assumed): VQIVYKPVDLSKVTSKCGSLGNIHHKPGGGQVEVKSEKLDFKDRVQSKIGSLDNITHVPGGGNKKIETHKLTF

| Compound | Z repl 1 | Z Repl 2 | av Z [1] | av puncta [2] | raw data 1 (raw puncta) | raw data 2 (raw puncta) | av Z [3] | av puncta (average of raw data 1 and 2) | raw data 1 (puncta) | raw data 2 (puncta) | AvZ (average z score of seeding, SDs from the mean level of seeding) | av Z [4] | av Z [5] |
| --- | --- | --- | --- | --- | --- | --- | --- | --- | --- | --- | --- | --- | --- |
| O=c1c(O[C@@H]2O[C@H](CO)[C@@H](O)[C@H](O)[C@H]2O)c(-c2ccc(O)c(O)c2)oc2cc(O)cc(O)c12 [Isoquercetin] | 0.174 | -0.844 | -0.335 | 16096.8 | 28442.1 | 3751.47 |  |  |  |  |  |  |  |
| COc1c(/C=C/C(=O)c2ccc(O)c(CC=C(C)C)c2)ccc(O)c1O [Licochalcone D] | 0.138 | 0.907 |  |  |  |  | 0.523 | 25231 | 28009.4 | 22452.6 |  |  |  |
| COc1c(O[C@@H]2O[C@H](C(=O)O)[C@@H](O)[C@H](O)[C@H]2O)cc(O)c2c(=O)cc(-c3ccccc3)oc12 [Wogonoside] | -0.039 | -0.756 | -0.398 | 15284.9 | 25879 | 4690.87 |  |  |  |  |  |  |  |
| O=c1c(-c2ccc(O)cc2)coc2cc(O)cc(O)c12 [Genistein] | 0.361 | 0.231 |  |  |  |  | 0.296 | 22958.3 | 30681.6 | 15235.1 |  |  |  |
| O=c1c(O)c(-c2ccc(O)c(O)c2)oc2cc(O)ccc12 [Fisetin] | -1.392 | -0.758 | -1.075 |  |  |  |  | 7157.01 | 9642.85 | 4671.16 |  |  |  |
| CCCC(=O)c1c(O)c(Cc2c(O)c(Cc3c(O)c(C)c(OC)c(C(=O)CCC)c3O)c(O)c(C(=O)[C@@H](C)CC)c2O)c(O)c(C)c1OC [Agrimol B] | -1.539 | -0.722 | -1.13 |  |  |  |  | 6464.64 | 7875.9 | 5053.37 |  |  |  |
| O=c1cc(-c2ccc(O)cc2)oc2cc(O)c([C@@H]3O[C@H](CO)[C@@H](O)[C@H](O)[C@H]3O[C@@H]3OC[C@H](O)[C@H](O)[C@H]3O)c(O)c12 [Isovitexin 2''-O-arabinoside] | -0.906 | -0.245 | -0.575 | 12810.9 |  |  |  |  | 15471.3 | 10150.6 |  |  |  |
| C/C=C/c1ccc(OC(C)=O)c(OC)c1 [Isoeugenol acetate] | -0.788 | 0.239 |  | 16103.3 | 16893.4 | 15313.2 |  |  |  |  | -0.275 |  |  |
| COc1cc(/C=C/C(=O)O[C@H]2C[C@@](O)(C(=O)O)C[C@H](O)[C@@H]2O)ccc1O (stereo in doubt) [3-Feruloylquinic acid] | 0.043 | -0.387 |  |  |  |  |  | 17749.2 | 26861 | 8637.46 |  | -0.172 |  |
| O=c1c(O[C@@H]2O[C@H](CO)[C@@H](O)[C@H](O)[C@H]2O)c(-c2ccc(O)cc2)oc2cc(O)cc(O)c12 [Astragalin] | -0.525 | -0.638 | -0.581 | 12999 |  |  |  |  | 20041.3 | 5956.82 |  |  |  |
| CC(=O)c1c(O)c(C)c(O)c2c1OC1=CC(=O)C(C(C)=O)C(=O)C12C (stereo not drawn) [Usnic acid] | 1.459 | 0.735 |  |  |  |  |  | 32238.5 | 43858.6 | 20618.4 |  |  | 1.097 |
| COc1cc(/C=C/C(=O)[O-])ccc1O.[Na+] [Ferulic acid (sodium)] | -1.081 | -0.257 |  | 11696.2 |  |  |  |  | 13369.9 | 10022.5 | -0.669 |  |  |
| O=C1C[C@@H](c2ccc(O)c(O)c2)Oc2c1ccc(O[C@@H]1O[C@H](CO)[C@@H](O)[C@H](O)[C@H]1O)c2O [Flavanomarein] | -0.895 | -0.498 | -0.697 | 11525.3 |  |  |  |  | 15599.3 | 7451.23 |  |  |  |
| COc1cc(-c2oc3cc(O)cc(O)c3c(=O)c2O[C@@H]2O[C@H](CO[C@@H]3O[C@@H](C)[C@H](O)[C@@H](O)[C@H]3O)[C@@H](O)[C@H](O)[C@H]2O)ccc1O [Narcissin] | 0.249 | -0.653 | -0.202 | 17563.5 | 29338.6 | 5788.5 |  |  |  |  |  |  |  |
| COc1ccc(-c2cc(=O)c3c(O)c(OC)c(O)c(OC)c3o2)cc1 [Nevadensin] | -0.55 | -0.108 | -0.329 | 15677.7 | 19746.6 | 11608.9 |  |  |  |  |  |  |  |
| COc1c2c3c4c(c(OC)c(=O)c5c(O)cc(OC)c(c6c(OC)cc(O)c(c1=O)c63)c54)[C@@H](C(C)=O)[C@@](C)(O)C2 [Hypocrellin A] | -1.761 | -1.119 | -1.44 |  |  |  |  | 3011.52 | 5209.06 | 813.974 |  |  |  |

| Compound | Z repl 1 | Z Repl 2 | av Z [1] | av puncta [2] | raw data 1 (raw puncta) | raw data 2 (raw puncta) | av Z [3] | av puncta (average of raw data 1 and 2) | raw data 1 (puncta) | raw data 2 (puncta) | AvZ (average z score of seeding, SDs from the mean level of seeding) | av Z [4] | av Z [5] |
| --- | --- | --- | --- | --- | --- | --- | --- | --- | --- | --- | --- | --- | --- |
| COc1cc(/C=C/c2ccc(O)c(O)c2)cc(OC)c1 [3'-Hydroxypterostilbene] | -0.14 | 0.484 |  |  |  |  | 0.172 | 21302.3 | 24671.3 | 17933.3 |  |  |  |
| O=C(/C=C/c1ccc(O)c(O)c1)c1ccc(O)cc1O [Butein] | -0.211 | 0.15 |  |  |  |  |  | 19090.8 | 23813.7 | 14367.8 |  | -0.031 |  |
| O=C(/C=C/c1ccc(O)c(O)c1)O[C@H]1[C@H](O)C[C@](O)(C(=O)O)C[C@H]1O [Cryptochlorogenic acid] | 0.935 | 0.427 |  |  |  |  | 0.681 | 27449.5 | 37574 | 17325 |  |  |  |
| COc1cc2ccc(=O)oc2c(O)c1O [Fraxetin] | -0.275 | -0.769 | -0.522 | 13803.1 |  |  |  |  | 23050.6 | 4555.69 |  |  |  |
| COc1cc2ccc(=O)oc2c(OC)c1O [Isofraxidin] | 0.211 | 0.742 |  |  |  |  | 0.477 | 24789.8 | 28887.4 | 20692.2 |  |  |  |
| COc1cc2c(cc1O)CC[n+]1cc3c(OC)c(OC)ccc3cc1-2.[Cl-] [Jatrorrhizine (chloride)] | 0.505 | -0.062 |  |  |  |  | 0.221 | 22254 | 32409.6 | 12098.4 |  |  |  |
| CC(=O)Cc1cc(=O)c2c(C)cc(O)c([C@@H]3O[C@H](CO)[C@@H](O)[C@H](O)[C@H]3O)c2o1 [Aloesin] | 0.457 | -0.177 |  |  |  |  | 0.14 | 21354.9 | 31839.2 | 10870.5 |  |  |  |
| O=C(/C=C/c1ccc(O)cc1)NCCc1c[nH]c2ccc(O)cc12 [N-(p-Coumaroyl) Serotonin] | 0.332 | -0.702 |  |  |  |  |  | 17799.1 | 30331 | 5267.16 | -0.185 |  |  |
| COc1cc(C[C@@H](CO)[C@H](CO)Cc2ccc(O)c(OC)c2)ccc1O [(+)-Secoisolariciresinol] | 0.313 | 1.018 |  |  |  |  | 0.666 | 26875.3 | 30111.3 | 23639.2 |  |  |  |
| N#CCc1ccc(O)cc1 [4-Hydroxybenzyl cyanide] | 0.423 | -0.552 |  |  |  |  |  | 19148.8 | 31425.1 | 6872.51 | -0.064 |  |  |
| Punicalin | -2.134 | -1.192 | -1.663 |  |  |  |  | 380.043 | 725.667 | 34.42 |  |  |  |
| Oc1cc(O)c2c(c1)O[C@@]1(c3ccc(O)c(O)c3)Oc3cc(O)c4c(c3[C@@H]2[C@H]1O)O[C@H](c1ccc(O)c(O)c1)[C@@H](O)C4 [Procyanidin A1] | 0.114 | 0.572 |  |  |  |  | 0.343 | 23298.5 | 27718.4 | 18878.6 |  |  |  |
| COc1ccc(-c2oc3c(CC=C(C)C)c(O)cc(O)c3c(=O)c2O[C@@H]2O[C@@H](C)[C@H](O)[C@@H](O)[C@H]2O)cc1 [Baohuoside I] | 0.959 | 1.521 |  |  |  |  |  | 33434.4 | 37856.1 | 29012.8 |  |  | 1.24 |
| CC(C)=CC[C@@H](OC(=O)CC(C)(C)O)C1=CC(=O)c2c(O)ccc(O)c2C1=O [?-Hydroxyisovalerylshikonin] | -0.737 | -0.673 | -0.705 | 11543.5 |  |  |  |  | 17504.1 | 5582.9 |  |  |  |
| CC(=O)c1ccc(C)cc1O [2'-Hydroxy-4'-methylacetophenone] | 0.483 | -0.487 |  |  |  |  |  | 19854.9 | 32144.5 | 7565.33 | -0.002 |  |  |
| O=c1c(O)c(-c2ccc(O)c(O)c2)oc2cc(O[C@@H]3O[C@H](CO)[C@@H](O)[C@H](O)[C@H]3O)c(O)c(O)c12 [Quercetagitrin] | -1.577 | -1.176 | -1.376 |  |  |  |  | 3815.32 | 7422.91 | 207.732 |  |  |  |

From PMC11784839, “Monoaminergic neurotransmitters are bimodal effectors of tau aggregation” (Science Advances, 2025)
